The experiment has as its system HeLa cells. In words: Internalization of Dox loaded nanoparticles (flow cytometry). The format is cell-based. Particulars: 8 h of exposure.

Procedure: After 24 h of incubation at 37° C., 5% CO2, Dox, CPT or Oxa loaded nanoparticles were added to the cells and incubated for 8 h followed by media change. The cells were then incubated for another 40 h before cell viability analysis.
Doxorubicin hydrochloride (Dox) (water soluble), and camptothecin (CPT) and oxaliplatin (Oxa) (water insoluble) were encapsulated into LNPs (see experimental section) and tested against HeLa cells. […] Then the internalization of Dox loaded 75-OCholB LNP (Dox/75-OCholB) was studied after 8 h of exposure using flow cytometry.

As to `COc1cccc2c1C(=O)c1c(O)c3c(c(O)c1C2=O)C[C@@](O)(C(=O)CO)C[C@@H]3O[C@H]1C[C@H](N)[C@H](O)[C@H](C)O1.Cl` [free Dox, Doxorubicin hydrochloride], the “mean fluorescence intensity vs untreated control cells (internalization)” value is “could be readily internalized”.
